The record followed here is patent publication US20210038559A1, “CANNABINOIDS AND DERIVATIVES FOR PROMOTING IMMUNOGENICITY OF TUMOR AND INFECTED CELLS” (priority 2018, published 2021).

Where a name gives a salt, the structure may show the parent alone.

One assay relates to MHC-I expression by COLO 205 cells. In words: cells. In kind it is cell-based, human.
Conditions: not given
The method, then:
A panel of synthetic cannabinoids (Cayman Chemical, #9002891) was tested for MHC class I-inducing capability in COLO 205 cells as described above. COLO 205 cells were treated with the compounds at a concentration of 35 μM and evaluated for cell surface MHC class I expression after 48 hours. Cells were harvested, stained with MHC-I mAb W6/32 (Thermo Fisher). MHC-I expression was determined by flow cytometry.
`CCCCCCn1cccc1C(=O)c1cccc2ccccc12` [Example 202, (1-hexyl-1H-pyrrol-2-yl)-1-naphthalenyl-methanone]: the “Induction Fold” value was found to be 1.87 Fold.

The same assay, now with this note: Homo sapiens, COLO 205, 48 h, MHC-I expression, COLO 205 cells, compounds at 35 μM, 48 hours, flow cytometry (W6/32); read-out: Induction Fold.
Take `O=C(Oc1cccc2cccnc12)c1cn(Cc2ccc(F)cc2)c2ccccc12` [Example 204, 1-[(4-fluorophenyl)methyl]-1H-indole-3-carboxylic acid, 8-quinolinyl ester]: the fold induction at 35 µM is 1.87.

Regarding `CCCCCn1cc(C(=O)Oc2cncc3ccccc23)c2ccccc21` [Example 52, isoquinolin-4-yl 1-pentyl-1H-indole-3-carboxylate], the fold induction at 35 µM is 2.98.

Turning to `NC(=O)[C@H](Cc1ccccc1)NC(=O)c1nn(CCCCCF)c2ccccc12` [Example 227, (S)-N-(1-amino-1-oxo-3-phenylpropan-2-yl)-1-(5-fluoropentyl)-1H-indazole-3-carboxamide], the fold induction at 35 µM came out at 1.72.

For `O=C(c1ccc2ccccc2c1)c1cn(CCCCCF)c2ccccc12` [Example 139, (1-(5-fluoropentyl)-1H-indol-3-yl)(naphthalen-2-yl)methanone], the fold induction at 35 µM came out at 2.19.

`CCCCCCCC(C)(C)c1ccc([C@@H]2CCC[C@H](O)C2)c(O)c1` (relative stereo) [Example 241, rel-5-(1,1-dimethyloctyl)-2-[(1R,3S)-3-hydroxycyclohexyl]-phenol]: the fold induction at 35 µM amounted to 1.68.

In the case of `CCCCCn1cc(C(=O)NC(C(N)=O)C(C)(C)C)c2ccccc21` (centres unmarked) [Example 88, N-(1-amino-3,3-dimethyl-1-oxobutan-2-yl)-1-pentyl-1H-indole-3-carboxamide], the fold induction at 35 µM came out at 2.5.

Turning to `O=C(Oc1ccc2ccncc2c1)c1cn(CCCCCF)c2ccccc12` [Example 340, isoquinolin-7-yl 1-(5-fluoropentyl)-1H-indole-3-carboxylate], the fold induction at 35 µM was found to be 1.18.

In the case of `CCCC(F)CCn1cc(C(=O)c2cccc3ccccc23)c2ccccc21` (centres unmarked) [Example 176, (1-(3-fluorohexyl)-1H-indol-3-yl)(naphthalen-1-yl)methanone], the fold induction at 35 µM amounted to 1.95.

Turning to `CCCCn1cc(C(=O)c2ccc3ccccc3c2)c2ccccc21` [Example 325, (1-butyl-1H-indol-3-yl)(naphthalen-2-yl)-methanone], the fold induction at 35 µM is 1.26.

For `O=C(Oc1cccc2ccccc12)c1cn(CCCCCF)c2ccccc12` [Example 257, naphthalen-1-yl 1-(5-fluoropentyl)-1H-indole-3-carboxylate], the fold induction at 35 µM worked out at 1.59.

On to `O=C(Oc1ccc2ccncc2c1)c1cn(CC2CCCCC2)c2ccccc12` [Example 254, isoquinolin-7-yl 1-(cyclohexylmethyl)-1H-indole-3-carboxylate], for which the fold induction at 35 µM was found to be 1.6.

On to `O=C(Nc1cccc2ccccc12)c1cn(Cc2ccc(F)cc2)c2ccccc12` [Example 330, 1-(4-fluorobenzyl)-N-(naphthalen-1-yl)-1H-indole-3-carboxamide], for which the fold induction at 35 µM is 1.23.

On to `CCCCCn1cc(C(=O)Cc2ccccc2C)c2ccccc21` [Example 101, 2-(2-methylphenyl)-1-(1-pentyl-1H-indol-3-yl)-ethanone], for which the fold induction at 35 µM was 2.42.

On to `CCCCCn1nc(C(=O)Nc2cccc3cccnc23)c2ccccc21` [Example 232, 1-pentyl-N-(quinolin-8-yl)-1H-indazole-3-carboxamide], for which the fold induction at 35 µM was found to be 1.71.

On to `CC(C)(NC(=O)c1cn(CCCCCF)c2ccccc12)c1ccccc1` [Example 356, 1-(5-fluoropentyl)-N-(1-methyl-1-phenylethyl)-1H-indole-3-carboxamide], for which the fold induction at 35 µM amounted to 1.03.

Regarding `CCCCCn1cc(C(=O)Cc2ccccc2OC)c2ccccc21` [Example 106, 1-(1-pentyl-1H-indol-3-yl)-2-(2-methoxyphenyl)-ethanone], the fold induction at 35 µM turned out to be 2.39.

In the case of `CC(C)(O)CCn1c(=O)n(C(=O)N[C@H](C(N)=O)C(C)(C)C)c2ccccc21` [Example 345, N-[(1S)-1-(aminocarbonyl)-2,2-dimethylpropyl]-2,3-dihydro-3-(3-hydroxy-3-methylbutyl)-2-oxo-1H-benzimidazole-1-carboxamide], the fold induction at 35 µM is 1.13.

Take `CCCC(NC(=O)c1nn(Cc2ccc(F)cc2)c2ccccc12)C(N)=O` (single isomer, unassigned) [Example 169, N-(1-amino-1-oxopentan-2-yl)-1-(4-fluorobenzyl)-1H-indazole-3-carboxamide]: the fold induction at 35 µM is 2.01.

Consider `O=C(Oc1cncc2ccccc12)c1cn(CCCCCF)c2ccccc12` [Example 19, isoquinolin-4-yl 1-(5-fluoropentyl)-1H-indole-3-carboxylate], for which the fold induction at 35 µM came to 4.06.

As to `CCCCCn1cc(C(=O)c2ccc(C)c3ccccc23)c2ccccc21` [Example 211, (4-methyl-1-naphthalenyl)(1-pentyl-1H-indol-3-yl)-methanone], the fold induction at 35 µM is 1.83.

Regarding `CCCCCCC(C)(C)c1ccc([C@@H]2CCC[C@H](O)C2)c(O)c1` (relative stereo) [Example 353, rel-5-(1,1-dimethylheptyl)-2-[(1R,3S)-3-hydroxycyclohexyl]-phenol], the fold induction at 35 µM was 1.06.

On to `CCCCCn1nc(C(=O)Nc2cccc3ccccc23)c2ccccc21` [Example 224, N-1-naphthalenyl-1-pentyl-1H-indazole-3-carboxamide], for which the fold induction at 35 µM is 1.75.

Take `CCCCCC1=C/C(=C\c2cccc3ccccc23)c2ccccc21` [Example 303, 1-[(E)-(3-pentyl-1H-inden-1-ylidene)methyl]-naphthalene]: the fold induction at 35 µM was 1.39.

For the compound `CCC(C)(C)n1cc(C(=O)c2cccc3ccccc23)c2ccccc21` [Example 103, naphthalen-1-yl(1-(tert-pentyl)-1H-indol-3-yl)methanone], the fold induction at 35 µM amounted to 2.41.

With `CCCCCn1cc(C(=O)c2c(Cl)ccc3ccccc23)c2ccccc21` [Example 75, (2-chloronaphthalen-1-yl)(1-pentyl-1H-indol-3-yl)methanone], the fold induction at 35 µM worked out at 2.65.

In the case of `CC[C@H](C)[C@H](NC(=O)c1nn(CCCCCF)c2ccccc12)C(N)=O` (single isomer, unassigned) [Example 298], the fold induction at 35 µM came to 1.42.

In the case of `CC(C)C(C)n1cc(C(=O)c2cccc3ccccc23)c2ccccc21` (centres unmarked) [Example 70, (1-(3-methylbutan-2-yl)-1H-indol-3-yl)(naphthalen-1-yl)methanone], the fold induction at 35 µM came to 2.7.

For the compound `CC(F)CCCn1cc(C(=O)Oc2cccc3cccnc23)c2ccccc21` (centres unmarked) [Example 102, quinolin-8-yl 1-(4-fluoropentyl)-1H-indole-3-carboxylate], the fold induction at 35 µM was found to be 2.41.

Take `O=C(Nc1cccc2cccnc12)c1nn(CCCCCF)c2ccccc12` [Example 166, 1-(5-fluoropentyl)-N-(quinolin-8-yl)-1H-indazole-3-carboxamide]: the fold induction at 35 µM came to 2.01.

With `CCCCCn1cc(C(=O)c2cccc3cccc(C)c23)c2ccccc21` [Example 81, (8-methylnaphthalen-1-yl)(1-pentyl-1H-indol-3-yl)methanone], the fold induction at 35 µM was determined as 2.57.

`COc1ccc(C(=O)c2cn(CC3CCCCC3)c3ccccc23)c2ccccc12` [Example 253, [1-(cyclohexylmethyl)-1H-indol-3-yl](4-methoxy-1-naphthalenyl)-methanone]: the fold induction at 35 µM came to 1.61.

In the case of `CCC(F)CCCn1cc(C(=O)c2cccc3ccccc23)c2ccccc21` (centres unmarked) [Example 173, (1-(4-fluorohexyl)-1H-indol-3-yl)(naphthalen-1-yl)methanone], the fold induction at 35 µM was determined as 1.98.

As to `CCCCCn1nc(C(=O)Oc2cccc3ccccc23)c2ccccc21` [Example 171, naphthalen-1-yl 1-pentyl-1H-indazole-3-carboxylate], the fold induction at 35 µM turned out to be 1.99.

In the case of `CCC(F)CCn1nc(C(=O)NC(C(N)=O)C(C)C)c2ccccc21` (centres unmarked) [Example 335, N-(1-amino-3-methyl-1-oxobutan-2-yl)-1-(3-fluoropentyl)-1H-indazole-3-carboxamide], the fold induction at 35 µM is 1.2.

With `CC(C)(NC(=O)c1nn(CC2CCOCC2)c2ccccc12)c1ccccc1` [Example 322, N-(1-methyl-1-phenylethyl)-1-[(tetrahydro-2H-pyran-4-yl)methyl]-1H-indazole-3-carboxamide], the fold induction at 35 µM is 1.27.

Turning to `CCCCCn1cc(C(=O)c2cc(Cl)cc3ccccc23)c2ccccc21` [Example 263, (3-chloronaphthalen-1-yl)(1-pentyl-1H-indol-3-yl)methanone, hydrate], the fold induction at 35 µM was 1.56.

As for `CCCCCn1cc(C(=O)N2CCN(C)CC2)c2ccccc21` [Example 273, (4-methylpiperazin-1-yl)(1-pentyl-1H-indol-3-yl)methanone, monohydrochloride], the fold induction at 35 µM amounted to 1.53.

The same assay, now with this note: MHC-I expression, COLO 205 cells, compounds at 35 μM, 48 hours, flow cytometry (W6/32).
With `O=C(NC12CC3CC(CC(C3)C1)C2)c1cn(CCCCCF)c2ccccc12` [Example 319, 1-(5-fluoropentyl)-N-tricyclo[3.3.1.13,7] dec-1-yl-1H-indole-3-carboxamide], the “Induction Fold” value is given as 1.31 Fold.

Turning to `CCCCCN1C(=O)C(=NNC(=O)c2ccccc2)c2ccc(OC)cc21` [Example 266, 2Z-(1,2-dihydro-6-methoxy-2-oxo-1-pentyl-3H-indol-3-ylidene)hydrazide benzoic acid], the “Induction Fold” value is 1.55 Fold.

Take `COC(=O)[C@@H](NC(=O)c1cn(CC2CCCCC2)c2ccccc12)C(C)(C)C` [Example 31, N-[[1-(cyclohexylmethyl)-1H-indol-3-yl]carbonyl]-3-methyl-1-valine, methyl ester]: the “Induction Fold” value came out at 3.35 Fold.
